Like-named read-outs stand apart in the source and are kept apart here.
Columns and labels:
[1] = biological target: T1, GST-CIB1 : F-scrambled peptide (Homo sapiens, UniProt Q99828); test: FP scrambled-peptide counter screen, 1536-well format; assay type: binding; details: for Curve Class (counterscreen) / COUNTERSCREEN Curve Class: qHTS curve class; for IC50: read-out: IC50 [μM] (counterscreen); for Confirm? (counterscreen): YES/NO
T1 construct: made in house; host or cells: BL-21 plus RIL cells (E. coli)
T1 sequence (Q99828 1-191): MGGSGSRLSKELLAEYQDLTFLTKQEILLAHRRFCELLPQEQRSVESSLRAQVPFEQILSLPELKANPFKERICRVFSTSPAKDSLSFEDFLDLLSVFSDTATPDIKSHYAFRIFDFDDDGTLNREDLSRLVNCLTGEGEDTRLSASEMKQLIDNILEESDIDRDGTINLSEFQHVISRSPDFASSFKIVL

[2] = biological target: T2, CIB1 and αIIb interaction (CIB1-GST : F-αIIb peptide) (Homo sapiens, UniProt Q99828); test: FP assay, 1536-well qHTS format (primary and confirmatory screen); assay type: binding; details: for Curve Class (confirmatory screen) / CONFIRMATORY SCREEN Curve Class: qHTS curve class
T2 construct: made in house; host or cells: BL-21 plus RIL cells (E. coli)
T2 sequence (Q99828 1-191): T1 sequence (Q99828 1-191)

[3] = counterscreen, negative sign = inhibitory curve
[4] = confirmatory screen, negative sign = inhibitory curve
[5] = confirmatory screen, read-out: IC50 [μM] (confirmatory screen)
[6] = Table S3, counterscreen, a negative sign marks inhibitory curves
[7] = Table S3, counterscreen, negative = inhibition
[8] = Table S3, confirmatory screen, YES/NO call
[9] = Table S3, confirmatory screen, a negative sign marks inhibitory curves
[10] = Table S3, confirmatory screen, negative = inhibition
[11] = Table S3, confirmatory screen, read-out: IC50 [μM] (confirmatory screen)
[12] = qHTS FP screen hits, Table S2, negative = inhibition
[13] = qHTS FP screen hits, Table S2, one class per curve where COUNT > 1, negative sign = inhibitory curve
[14] = qHTS FP screen hits, Table S2, read-out: IC50
[15] = qHTS primary screen hits, Table S2, negative = inhibition
[16] = qHTS primary screen hits, Table S2, negative sign = inhibitory curve, several classes where COUNT > 1
[17] = qHTS primary screen hits, Table S2, read-out: IC50

SMILES	Curve Class (counterscreen) [1, 3]	IC50 [2, 5] [µM]	Efficacy (%) [2, 12] [%]	Curve Class [2, 13]	IC50 [2, 14] [µM]	Efficacy (%) (counterscreen) ([1]; counterscreen)	IC50 ([1]; counterscreen) [µM]	Efficacy (%) (confirmatory screen) ([2]; confirmatory screen)	Confirm? (confirmatory screen) ([2]; confirmatory screen, YES/NO)	Curve Class (confirmatory screen) [2, 4]	Efficacy (%) [2, 15] [%]	IC50 [2, 17] [µM]	further results
C=C1C(=O)[C@@]23C(CC[C@@H]1[C@H]2O)[C@@]12CO[C@]3(O)[C@@H](O)[C@@H]1C(C)(C)CC[C@@H]2O (some centres unmarked) [NCGC00346595-02]	-1.2	25.1				-60	15.8	-89	YES	-1.1			
O=C(O)CCNc1cc(N2CCc3ccccc3CC2)nc(-c2ccccn2)n1 [NCGC00347943-01]													COUNTERSCREEN Efficacy (%) ([1]; counterscreen): -35%; COUNTERSCREEN Curve Class ([1]; counterscreen): 4; CONFIRMATORY SCREEN Efficacy (%) ([2]; confirmatory screen): -28%; CONFIRMATORY SCREEN Curve Class ([2]; confirmatory screen): 4
CCCCCCCCn1cc(CC(N)=O)c2cc(-c3cccc(C)c3)ccc21.O=C(O)C(F)(F)F [NCGC00348156-02]			-74		50.1								Curve Class (counterscreen) [1, 6]: -2.1; Efficacy (%) (counterscreen) [1, 7]: -121%; IC50 ([1]; Table S3, counterscreen): 39.8 µM; Confirm? (confirmatory screen) [2, 8]: YES; Curve Class (confirmatory screen) [2, 9]: -2.4; Efficacy (%) (confirmatory screen) [2, 10]: -95%; IC50 [2, 11]: 44.7 µM
CC1=C(C(=O)Nc2cccc(C(=O)O)c2)C(c2ccccc2Cl)N=C(Nc2nc3ccccc3o2)N1.O=C(O)C(F)(F)F (centres unmarked) [NCGC00351024-01]			-37	-2.2	39.8	141	79.4	-26	YES	-2.4			Confirm? (counterscreen) ([1]; counterscreen): YES
Cc1cccc(C(=O)c2no[n+]([O-])c2C(=O)c2cccc(C)c2)c1.O=C(O)C(F)(F)F [NCGC00351156-01]	-1.2	31.6				-65	10	-73	YES	-2.2	-52	7.9	Curve Class [2, 16]: -1.2
COc1cccc(C(=O)c2no[n+]([O-])c2C(=O)c2cccc(OC)c2)c1 [NCGC00351157-02]											-53	22.2	Curve Class (counterscreen) [1, 6]: -1.2; Efficacy (%) (counterscreen) [1, 7]: -60%; IC50 ([1]; Table S3, counterscreen): 17.8 µM; Confirm? (confirmatory screen) [2, 8]: YES; Curve Class (confirmatory screen) [2, 9]: -1.4; Efficacy (%) (confirmatory screen) [2, 10]: -52%; IC50 [2, 11]: 12.6 µM
Cc1ccccc1C(=O)N1CCc2cc(-c3nc(NC(=O)Cc4ccc(OCCOCCOCCN)cc4)sc3C)ccc21.O=C(O)C(F)(F)F [NCGC00351618-01]	-2.4	39.8				-31	11.2	-41	YES	-1.2	-25	17.8	Curve Class [2, 16]: -1.4
Cn1ccc(=Nc2ccc(NC(=O)c3ccc(/N=c4\ccn(C)c5ccc([N+](=O)[O-])cc45)cc3[N+](=O)[O-])cc2)cc1.O=C(O)C(F)(F)F [NCGC00356066-02]	-1.2					-46	12.6	-82	YES	-1.2	-65	39.8	Curve Class [2, 16]: -2.2
O=C(O)C(F)(F)F.O=C(O)c1csc(-n2nc(-c3ccc(F)c(F)c3)c3cccc(O)c32)n1 [NCGC00356386-01]			-22		3.2								COUNTERSCREEN Efficacy (%) ([1]; counterscreen): 0%; COUNTERSCREEN Curve Class ([1]; counterscreen): 4; CONFIRMATORY SCREEN Efficacy (%) ([2]; confirmatory screen): -21%; CONFIRMATORY SCREEN Curve Class ([2]; confirmatory screen): 4

Continued, in another order:

Curve Class (counterscreen) [1, 3]	IC50 [2, 5] [µM]	Efficacy (%) [2, 12] [%]	Curve Class [2, 13]	IC50 [2, 14] [µM]	SMILES	Efficacy (%) (counterscreen) ([1]; counterscreen)	IC50 ([1]; counterscreen) [µM]	Efficacy (%) (confirmatory screen) ([2]; confirmatory screen)	Confirm? (confirmatory screen) ([2]; confirmatory screen, YES/NO)	Curve Class (confirmatory screen) [2, 4]	Efficacy (%) [2, 15] [%]	IC50 [2, 17] [µM]	further results
		-37	-2.2	15.2	CN1CCCN(C(=O)c2cccc(-c3ccc(/C=C4/C(=O)Nc5ccc(Cl)cc54)o3)c2)CC1 [NCGC00346935-01]								Curve Class (counterscreen) [1, 6]: -1.1; Efficacy (%) (counterscreen) [1, 7]: -108%; IC50 ([1]; Table S3, counterscreen): 35.5 µM; Confirm? (confirmatory screen) [2, 8]: YES; Curve Class (confirmatory screen) [2, 9]: -1.3; Efficacy (%) (confirmatory screen) [2, 10]: -102%; IC50 [2, 11]: 35.5 µM
3	35.5	-21		31.6	COc1ccc(NC(=O)c2[nH]c(C)c(C(C)=O)c2C)cc1S(=O)(=O)Nc1ccccc1C#N [NCGC00348145-01]	157	39.8	-41	YES	-2.2			Confirm? (counterscreen) ([1]; counterscreen): YES
-2.2	89.1	-64	-2.2	50.1	COc1nc2ccc(Br)cc2cc1[C@@H](c1ccccc1)[C@@](O)(CCN(C)C)c1cccc2ccccc12 [NCGC00348215-04]	-83	89.1	-94	YES	-2.2			
-1.2	39.8	-50	-2.2	35.5	Cc1cc(/N=N/c2ccc(S(=O)(=O)Nc3ccccn3)cc2)c(N)cc1O [NCGC00356068-01]	-44	44.7	-64	YES	-2.2			
